# Measured values as given in patent publication US12630523B2, “Isoquinoline derivatives for use as antiviral and antitumour agents” (priority 2021, dated 2026).
# Assays:
# HPV16 E7 protein = target: T1, HPV16 E7 protein (Human papillomavirus type 16, UniProt P03129); type: cell-based; settings: CaSki cells; for % Dad: adjusted degradation, CHX steady state set to 100% degradation
# T1 construct: endogenous in cells; host or cells: CaSki cells (HPV16-positive cervical carcinoma)
# Method: For intracellular antibody labeling, 0.5×10^6 cells are washed once with 1 ml ice-cold PBS. Cells are centrifuged at 350×g for 5 minutes at 4° C. and then fixed in 1% paraformaldehyde (1 ml/10^6 cells) for 20 minutes at 4° C. Cells are washed with 1 ml ice-cold PBS and centrifuged at 350×g for 5 minutes at 4° C. To permeabilize cells, 100% ice-cold methanol (1 ml/10^6 cells) is added to the cells and incubated for 20 minutes at 4° C. followed by centrifugation at 350×g for 5 minutes at 4° C. Cells are washed with 1 ml ice-cold PBS, centrifuged at 350×g for 5 minutes at 4° C. and resuspended in 0.1% saponin+2% FBS in PBS (ice-cold). Cells are left for 20-30 minutes at room temperature to reduce the background signal and then centrifuged at 350×g for 5 minutes at 4° C. The primary antibody (mAb_HPV16E7-1 (VS13004); concentration 1 μg/μl) is diluted in 0.1% saponin+2% FBS (dilution 0.25 μg/50 μl of incubation buffer per 1×10^6 cells (5 ng/μl)). Cells are incubated with primary antibody for 30 minutes at room temperature, washed with 0.1% saponin+2% FBS and centrifuged at 350×g for 5 minutes at 4° C. The secondary antibody (FITC conjugated goat anti-mouse IgG1-IgM, BD, cat. #555988) is diluted in 0.1% saponin+2% FBS (dilution 1:50). Cells are incubated with secondary antibody for 30 minutes at room temperature, washed once with 0.1% saponin+2% FBS, once with PBS and centrifuged at 350×g for 5 minutes at 4° C.
# Cells are resuspended in 700 μl PBS prior to CF analysis with a Beckman Coulter FC 500 MPL, (excitation laser 488 nm). Data analysis is done using the Beckman Coulter software packages MXP for acquisition and CXP for data analysis which includes MFI calculation. Detection of HPV-E7 protein expression is based on morphology back-gating of FL1 histogram (logarithmic scale) with gating for dot plot FS (Forward Scatter) log/SS (Sideward Scatter) log and gating for histograms SS log.
# In order to define the level of E7 protein expression and to study the extent of E7 protein steady state level reduction in E7 expressing cells in the presence of various compounds, FC analysis is implemented using the intracellular antibody labeling procedure for monoclonal antibodies to HPV E7. E7 signal intensities are analyzed from the obtained FL1 histograms at logarithmic scale. The FL1 single histogram graph represents the variation in the mean fluorescence intensity (MFI) channel for cells treated with selected compounds compared to cells not incubated with primary antibodies but incubated with secondary, which allows to test for auto-fluorescence, and non-compound treated cells as controls. Non-primary antibody-stained cells are used to set the acquisition parameters to zero. Decrease of the mean fluorescence intensity channel corresponds to a decrease in the expression of HPV16 E7 protein. Degradation of E7 in cells is calculated as percent (%) reduction in MFI(x-Me) using the following formulas: % Drel=(T−C)/T*100; i) relative degradation: % Dad=(T−C)/(T−CHX)*100; ii) adjusted degradation: • Drel=relative degradation, • Dad=adjusted degradation assuming CHX % Drel=100; • T=MFI of non-treated cells; • C=MFI of compound treated cells; • CH=MFI of cycloheximide (CHX) treated cells;
# For comparison within one experiment i) the % relative degradation (Drel) is sufficient, whereas for comparison between two or more experiments ii) the adjusted degradation (Dad) is used and CHX steady state is set to a 100% degradation parameter.
# 1×10^6 freshly seeded CaSki cells (ATCC CRL-7915), are grown in 10 cm diameter cell culture dishes in RPMI1640, 10% FCS medium at 37° C. 5% CO2 overnight and then incubated in the presence of 10 μM Cycloheximide (CHX) 10 μM OC246 or with vehicle alone for four hours at 37° C. 5% CO2. Following this E7 protein is assessed by cytofluorimetric analysis using intracellular HPV16 E7 antibody labeling. […]
# [1] = tested on: peripheral blood mononuclear cells (PBMC); test: Monolayer SRB assay, PBMC; type: cell-based
# Method: Various cell culture cells grown as monolayers are harvested from exponential growing cultures after treatment with various OC compounds at different concentrations. For this depending on the cell line, 10.000 to 30.000 cells were plated in 96-well flat-bottom microtiter plates. After a 24 h recovery period to allow cells to resume exponential growth, supernatants are discarded and 100 μl of culture medium (eight control wells/plate) or culture medium with the test compound are added by a liquid handling robotic system (Microlab® Starlet, Hamilton) and treatment continued for 72 hrs. Compounds are applied at 9 concentrations and eight wells/concentration). At least three independent experiments are performed. For SRB staining, cells are fixed with SRB01 (Tab. 5) for 1 h at 4° C. […] Optical density is assessed using a plate-reader (Sunrise, Tecan©) at 540 nm.
# Concentrations required for half maximal response of the compound for cell growth inhibition (EC50) is calculated by non-linear regression (log[conc. of inhibitor] versus response (% T/C)) using the analysis software GraphPad Prism®, Prism 5 for windows, version 5.01 (GraphPad Software Inc., CA).
# [2] = tested on: patient derived SARS-2 Coronavirus (COVID19); test: Inhibition of Sars-CoV2 replication by RNA qPCR analysis in Vero E6 cells; type: cell-based, SARS-CoV-2; settings: 7.5 μM, supernatants 3 days after infection, n3
# Method: Vero E6 cells were pre-incubated with the compounds at a concentration of 7.5 μM. The cells were infected with a patient derived SARS-2 Coronavirus (COVID19). Cellular supernatants were collected 3 days after infection and centrifuged at 2000 rpm for 5 min to remove detached cells. Viral RNAs were extracted using a MagNA Pure 24 system (Roche, Germany). SARS-CoV-2 RNA genomes were quantified with the TIB MOLBIOL LightMix Assay SARS-CoV-2 RdRP RTqPCR assay kit with RNA Process Control PCR Kit (Roche). The PCR reaction setup was performed using a BRAND LHS laboratory robot to ensure quality. The amplification was performed with a LightCycler 480 II (Roche). Method used in FIG. 10.
# SARV-CoV-2 antiviral activity by of VSP034 and VSP035 (n3; number of repeat of the assay at each condition). The results are shown in for DMSO (1), 7.5 μM VSP034 (2) and 7.5 μM VSP035 (3), y axis logarithmic scale. […] (FIG. 9)
# T1 sequence (P03129 whole entry): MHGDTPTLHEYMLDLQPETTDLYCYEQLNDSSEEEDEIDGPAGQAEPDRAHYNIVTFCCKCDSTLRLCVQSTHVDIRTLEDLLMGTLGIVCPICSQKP
Compound,"% Drel (relative degradation) (HPV16 E7 protein; 10 μM, four hours) [%]","% Dab (adjusted degradation) (HPV16 E7 protein; 10 μM, four hours, CHX set to 100) [%]","MFI (mean fluorescence intensity) of E7 signal (HPV16 E7 protein; 10 μM, four hours, vehicle T 8.06)",% Dad (HPV16 E7 protein) [%],EC50 [1] [µM],reduction of virus load as determined by the PCR assay [2]
"Cc1ccc(CN2C(=O)c3ccccc3[C@H](C(=O)Nc3cccc(N4CCN(C)CC4)c3)[C@@H]2c2ccc(C(F)(F)F)cc2)cc1 [OC246, N-[3-(4-methylpiperazin-1-yl)phenyl]-2-[(4-methylphenyl)methyl]-1-oxo-3-[4-(trifluoromethyl)phenyl]-1,2,3,4-tetrahydroisoquinoline-4-carboxamide]",43.79,55.59,4.53,56,> 100,
"CN1CCC(CN2C(=O)c3ccccc3[C@@H](C(=O)Nc3cccc(N4CCN(C)CC4)c3)[C@@H]2c2ccc(C(F)(F)F)cc2)CC1 (racemic) [OC974, (3R,4R)- and (3S,4S)-N-[3-(4-methylpiperazin-1-yl)phenyl]-2-[(1-methylpiperidin-4-yl)methyl]-1-oxo-3-[4-(trifluoromethyl)phenyl]-3,4-dihydroisoquinoline-4-carboxamide]",,,,68,,
"CN1CCC(CN2C(=O)c3ccccc3[C@H](C(=O)Nc3cccc(N4CCN(C)CC4)c3)[C@H]2c2ccc(C(F)(F)F)cc2)CC1 [VSP035, (3S,4S)-N-[3-(4-methylpiperazin-1-yl)phenyl]-2-[(1-methylpiperidin-4-yl)methyl]-1-oxo-3-[4-(trifluoromethyl)phenyl]-1,2,3,4-tetrahydroisoquinoline-4-carboxamide]",,,,,,one order of magnitude
